Values quoted from earlier work as cited in patent US6723737B1 (priority 1999, dated 2004).

Experiments:
[1] = tested on: genetically obese experimental animals
young men = conditions: after caffeine ingestion, statistically significant

Structure (SMILES) | weight loss [1] | levels of free fatty acids (young men)
Cn1c(=O)c2[nH]cnc2n(C)c1=O [theophylline, 1,3-dimethylxanthine] | did not produce weight loss | 
Cn1c(=O)c2c(ncn2C)n(C)c1=O [caffeine, 1,3,7-trimethylxanthine] | did not produce weight loss | increased the levels of free fatty acids
